Measurements from patent US10538487B2, “Sulfonylureas and related compounds and use of same” (priority 2015, dated 2020).
Read-outs that look alike come from different tables or passages of the source.

How the values were obtained:
NLRP3 inflammasome [1] = molecular target: NLRP3 inflammasome (Mus musculus, UniProt Q8R4B8); experiment: Inhibition of IL-1β release, NLRP3 inflammasome activation assay in BMDM; format: cell-based
Method: The following assays can be used to determine inhibitory activity of test compounds on the NLRP3 inflammasome using common stimuli such as adenosine triphosphate, nigericin, LeuLeu-OMe or monosodium urate crystals (MSU).
Mouse bone marrow-derived macrophages (BMDM) were derived from bone marrow progenitors isolated from the femurs and tibias of C57BL/6 mice.
BMDM are seeded at 1×10^5/ml. The following day the overnight medium is replaced and cells are stimulated with Ultrapure lipopolysaccharide from Escherichia coli K12 strain (InvivoGen) for 3 h. Medium is removed and replaced with serum free medium (SFM) containing test compound 30 min prior to NLRP3 stimulation. […] ATP can be sourced from Sigma Aldrich, nigericin and MSU from Invivogen and LeuLeu-Ome from Chem-Impex International.
For ELISA and cell death assays cells are seeded in 96 well plates. Supernatants are removed and analysed using ELISA kits according to the manufacturer's instructions (DuoSet® R&D Systems, ReadySetGo!® eBioscience, BD OptEIA™, or Perkin Elmer AlphaLISA®). Cell death is assessed by measurement of LDH release relative to a 100% cell lysis control using the CytoTox96® non-radioactive cytotoxicity assay (Promega).

NLRP3 inflammasome [2] = molecular target: NLRP3 inflammasome (Homo sapiens, UniProt Q96P20); experiment: Inhibition of IL-1β release, NLRP3 inflammasome activation assay in HMDM; format: cell-based
NLRP3 inflammasome (Homo sapiens, UniProt Q96P20), sequence (Q96P20 whole entry): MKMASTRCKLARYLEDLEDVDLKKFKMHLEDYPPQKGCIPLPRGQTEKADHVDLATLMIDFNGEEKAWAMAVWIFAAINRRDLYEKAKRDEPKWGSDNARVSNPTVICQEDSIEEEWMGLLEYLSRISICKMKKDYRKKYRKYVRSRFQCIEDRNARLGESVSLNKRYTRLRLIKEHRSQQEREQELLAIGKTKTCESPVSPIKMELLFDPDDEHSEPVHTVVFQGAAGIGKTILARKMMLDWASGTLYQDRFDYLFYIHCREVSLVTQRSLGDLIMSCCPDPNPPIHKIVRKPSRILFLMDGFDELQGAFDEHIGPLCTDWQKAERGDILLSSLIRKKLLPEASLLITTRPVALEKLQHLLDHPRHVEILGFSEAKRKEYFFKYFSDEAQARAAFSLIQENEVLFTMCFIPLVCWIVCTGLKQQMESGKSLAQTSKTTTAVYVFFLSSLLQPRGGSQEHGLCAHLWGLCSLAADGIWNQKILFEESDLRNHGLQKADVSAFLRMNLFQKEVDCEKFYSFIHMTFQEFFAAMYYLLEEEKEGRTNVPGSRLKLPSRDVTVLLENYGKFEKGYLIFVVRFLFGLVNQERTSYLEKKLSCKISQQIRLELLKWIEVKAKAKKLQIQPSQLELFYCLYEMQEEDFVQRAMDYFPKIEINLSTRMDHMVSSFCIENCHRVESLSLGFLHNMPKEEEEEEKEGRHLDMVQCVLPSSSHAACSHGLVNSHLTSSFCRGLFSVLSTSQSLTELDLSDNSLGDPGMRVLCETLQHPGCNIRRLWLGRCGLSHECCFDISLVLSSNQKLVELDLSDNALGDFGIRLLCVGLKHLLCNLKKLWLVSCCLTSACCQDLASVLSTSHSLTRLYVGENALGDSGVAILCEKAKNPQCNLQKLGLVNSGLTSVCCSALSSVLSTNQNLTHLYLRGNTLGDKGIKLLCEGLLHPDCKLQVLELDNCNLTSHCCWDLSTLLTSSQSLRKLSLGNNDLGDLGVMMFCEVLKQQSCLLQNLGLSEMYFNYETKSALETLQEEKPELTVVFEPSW
Summary of the method: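 Primary human monocyte-derived macrophages from CD14+ buffy-coat monocytes, seeded at 1×10^5/ml. Compound added in serum-free medium 30 min before NLRP3 stimulation (ATP, nigericin, LeuLeu-OMe or MSU). Cytokine in supernatants measured by ELISA or AlphaLISA; cell death by LDH release relative to full lysis.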

[3] = inhibition of IL-1β release, class symbols, read-out: Avg. IL-1β IC50 Murine BMDM
[4] = inhibition of IL-1β release, class symbols, read-out: Avg. IL-1β IC50 HMDM
[5] = select compounds of the first aspect (Table 10), read-out: BMDM IC50 vs NLRP3
[6] = select compounds of the first aspect (Table 10), read-out: HMDM IC50 vs NLRP3
[7] = inhibition of IL-1β release, numeric bounds, read-out: Avg. IL-1β IC50 Murine BMDM
[8] = inhibition of IL-1β release, numeric bounds, read-out: Avg. IL-1β IC50 HMDM
[9] = commercial compounds (Table 9), read-out: BMDM IC50 vs NLRP3
[10] = commercial compounds (Table 9), read-out: HMDM IC50 vs NLRP3

NLRP3 inflammasome (Mus musculus, UniProt Q8R4B8), sequence (Q8R4B8 whole entry): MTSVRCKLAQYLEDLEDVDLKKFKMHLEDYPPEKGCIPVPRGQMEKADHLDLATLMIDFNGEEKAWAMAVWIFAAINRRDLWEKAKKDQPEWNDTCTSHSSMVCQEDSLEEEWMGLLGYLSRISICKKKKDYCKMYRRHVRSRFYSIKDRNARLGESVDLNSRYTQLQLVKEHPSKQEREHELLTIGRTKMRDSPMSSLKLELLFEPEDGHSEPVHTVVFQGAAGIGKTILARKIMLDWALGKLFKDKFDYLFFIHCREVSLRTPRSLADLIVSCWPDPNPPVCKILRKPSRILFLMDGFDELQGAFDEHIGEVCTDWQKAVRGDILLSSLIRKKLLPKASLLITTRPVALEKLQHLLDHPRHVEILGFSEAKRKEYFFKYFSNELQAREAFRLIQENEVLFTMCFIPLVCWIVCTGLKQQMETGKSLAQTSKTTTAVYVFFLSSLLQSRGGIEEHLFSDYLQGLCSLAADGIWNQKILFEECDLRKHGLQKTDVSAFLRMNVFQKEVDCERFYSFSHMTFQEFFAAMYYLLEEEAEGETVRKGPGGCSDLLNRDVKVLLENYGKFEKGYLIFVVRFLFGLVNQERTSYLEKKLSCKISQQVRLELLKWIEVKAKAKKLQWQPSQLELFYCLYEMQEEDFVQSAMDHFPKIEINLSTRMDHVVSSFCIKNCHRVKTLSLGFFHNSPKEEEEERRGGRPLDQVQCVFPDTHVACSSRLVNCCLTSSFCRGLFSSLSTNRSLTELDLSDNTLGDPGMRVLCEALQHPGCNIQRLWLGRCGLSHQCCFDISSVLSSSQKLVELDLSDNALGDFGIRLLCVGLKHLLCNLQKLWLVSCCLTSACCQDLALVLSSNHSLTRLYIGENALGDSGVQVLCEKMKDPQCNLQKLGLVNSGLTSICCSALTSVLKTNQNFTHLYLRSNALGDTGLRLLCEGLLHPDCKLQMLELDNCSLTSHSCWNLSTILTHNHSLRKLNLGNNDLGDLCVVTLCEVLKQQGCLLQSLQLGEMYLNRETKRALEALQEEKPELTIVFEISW

Row | Compound | IC50 (NLRP3 inflammasome [1]; [3]) | IC50 (NLRP3 inflammasome [2]; [4]) | also measured
1 | CC(C)(O)c1coc(S(=O)(=O)NC(=O)Nc2ccc(C(F)(F)F)cc2C(F)(F)F)c1 [N-((2,4-bis(trifluoromethyl)phenyl)carbamoyl)-4-(2-hydroxypropan-2-yl)furan-2-sulfonamide] | < 1 µM | < 10 µM | 
2 | O=C(Nc1c2c(cc3c1CCC3)CCC2)NS(=O)(=O)c1ccc2c(c1)CCC2 [drawing 367] |  |  | IC50 (NLRP3 inflammasome [1]; [5]): 0.05 µM; IC50 (NLRP3 inflammasome [2]; [6]): 1.46 µM
3 | CC(C)(O)c1coc(S(=O)(=O)NC(=O)Nc2c3c(c(Br)c4c2CCC4)CCC3)c1 [N-((8-bromo-1,2,3,5,6,7-hexahydro-s-indacen-4-yl)carbamoyl)-4-(2-hydroxypropan-2-yl)furan-2-sulfonamide] | < 0.1 µM | < 0.1 µM | 
4 | CC(C)n1cc(S(=O)(=O)NC(=O)Nc2c3c(cc4c2CCC4)CCC3)nn1 [N-((1,2,3,5,6,7-hexahydro-s-indacen-4-yl)carbamoyl)-1-isopropyl-1H-1,2,3-triazole-4-sulfonamide] | < 1 µM | < 0.1 µM | 
5 | O=C(Nc1ccc2ncccc2c1)NS(=O)(=O)c1cccc(C2(C(F)(F)F)N=N2)c1 [N-(quinolin-6-ylcarbamoyl)-3-(3-(trifluoromethyl)-3H-diazirin-3-yl)benzenesulfonamide] |  |  | IC50 (NLRP3 inflammasome [1]; inhibition of IL-1β release, uM, read-out: Avg. IL-1β IC50 Murine BMDM): > 50 µM; IC50 (NLRP3 inflammasome [2]; inhibition of IL-1β release, uM, read-out: Avg. IL-1β IC50 HMDM): > 50 µM
6 | Cc1cc(C)nc(NC(=O)NS(=O)(=O)c2cc(C(C)(C)O)co2)n1 [N-((4,6-dimethylpyrimidin-2-yl)carbamoyl)-4-(2-hydroxypropan-2-yl)furan-2-sulfonamide] |  |  | IC50 (NLRP3 inflammasome [1]; [7]): > 10 µM; IC50 (NLRP3 inflammasome [2]; [8]): > 50 µM
7 | Cc1cc(Cl)cc(C(F)(F)F)c1NC(=O)NS(=O)(=O)c1ccn(C(C)C)n1 [N-((4-chloro-2-methyl-6-(trifluoromethyl)phenyl)carbamoyl)-1-isopropyl-1H-pyrazole-3-sulfonamide] |  | < 10 µM | IC50 (NLRP3 inflammasome [1]; [7]): > 10 µM
8 | CC(C)(O)c1coc(S(=O)(=O)NC(=O)Nc2c3c(c(Cl)c4c2CCC4)CCC3)c1 [N-((8-chloro-1,2,3,5,6,7-hexahydro-s-indacen-4-yl)carbamoyl)-4-(2-hydroxypropan-2-yl)furan-2-sulfonamide] | < 0.1 µM | < 0.1 µM | 
9 | O=C(CCCC[C@@H]1SC[C@@H]2NC(=O)N[C@@H]21)NCCCn1cc(CCC(=O)Nc2cccc(S(=O)(=O)NC(=O)Nc3c4c(cc5c3CCC5)CCC4)c2)nn1 [N-(3-(4-(3-((3-(N-((1,2,3,5,6,7-hexahydro-s-indacen-4-yl)carbamoyl)sulfamoyl)phenyl)amino)-3-oxopropyl)-1H-1,2,3-triazol-1-yl)propyl)-5-((3aS,4S,6aR)-2-oxohexahydro-1H-thieno[3,4-d]imidazol-4-yl)pentanamide] | < 10 µM | < 10 µM | 
10 | O=C(Nc1c2c(cc3c1CCC3)CCC2)NS(=O)(=O)c1cccc(C(F)(F)F)c1 [N-((1,2,3,5,6,7-hexahydro-s-indacen-4-yl)carbamoyl)-3-(trifluoromethyl)benzenesulfonamide] | < 1 µM | < 0.1 µM | 
11 | COc1ccc2c(c1)C(=O)N(CCc1ccc(S(=O)(=O)NC(=O)Nc3c4c(cc5c3CCC5)CCC4)cc1)C(=O)C2(C)C [N-((1,2,3,5,6,7-hexahydro-s-indacen-4-yl)carbamoyl)-4-(2-(7-methoxy-4,4-dimethyl-1,3-dioxo-3,4-dihydroisoquinolin-2(1H)-yl)ethyl)benzenesulfonamide] | < 1 µM | < 10 µM | 
12 | COc1cccc(S(=O)(=O)NC(=O)Nc2c3c(cc4c2CCC4)CCC3)c1 [N-(1,2,3,5,6,7-hexahydros-indacen-4-ylcarbamoyl)-3-methoxybenzenesulfonamide] | < 0.1 µM | < 0.1 µM | 
13 | O=C(Nc1c2c(cc3c1CCC3)CCC2)NS(=O)(=O)c1ccc(CCNc2ccc([N+](=O)[O-])c3nonc23)cc1 [N-((1,2,3,5,6,7-hexahydro-s-indacen-4-yl)carbamoyl)-4-(2-((7-nitrobenzo[c][1,2,5]oxadiazol-4-yl)amino)ethyl)benzenesulfonamide] | < 1 µM | < 1 µM | 
14 | CCCCNC(=O)NS(=O)(=O)c1ccc(C)cc1 [Tolbutamide, reference compound] |  |  | IC50 (NLRP3 inflammasome [1]; [9]): > 200 µM; IC50 (NLRP3 inflammasome [2]; [10]): > 200 µM
15 | COc1ccc2c(c1NC(=O)NS(=O)(=O)c1cc(C(C)(C)O)co1)CCC2 [4-(2-hydroxypropan-2-yl)-N-((5-methoxy-2,3-dihydro-1H-inden-4-yl)carbamoyl)furan-2-sulfonamide] | < 1 µM | < 1 µM | 
16 | Cc1c2c(c(NC(=O)NS(=O)(=O)c3cc(C(C)(C)O)co3)c3c1CCC3)CCC2 [4-(2-hydroxypropan-2-yl)-N-((8-methyl-1,2,3,5,6,7-hexahydro-s-indacen-4-yl)carbamoyl)furan-2-sulfonamide] | < 0.1 µM | < 0.1 µM | 
17 | Cc1cc(Cl)cc(C)c1NC(=O)NS(=O)(=O)c1ccn(C(C)C)n1 [N-((4-chloro-2,6-dimethylphenyl)carbamoyl)-1-isopropyl-1H-pyrazole-3-sulfonamide] |  | < 10 µM | IC50 (NLRP3 inflammasome [1]; [7]): > 10 µM
18 | COc1ccc(Cl)cc1C(=O)NCCc1ccc(S(=O)(=O)NC(=O)Nc2c3c(cc4c2CCC4)CCC3)cc1 | < 1 µM | < 1 µM | 

Row | Compound | IC50 (NLRP3 inflammasome [1]; [3]) | IC50 (NLRP3 inflammasome [2]; [4]) | also measured
19 | CC(C)(O)c1coc(S(=O)(=O)NC(=O)Nc2cc(C(F)(F)F)ccc2C(F)(F)F)c1 [N-((2,5-bis(trifluoromethyl)phenyl)carbamoyl)-4-(2-hydroxypropan-2-yl)furan-2-sulfonamide] | < 1 µM | < 10 µM | 
20 | CC(=O)c1ccc(S(=O)(=O)NC(=O)Nc2c3c(cc4c2CCC4)CCC3)cc1 [drawing 363] |  |  | IC50 (NLRP3 inflammasome [1]; [5]): 0.036 µM; IC50 (NLRP3 inflammasome [2]; [6]): 0.31 µM
21 | Cc1ccc(S(=O)(=O)NC(=O)NN2CC3CCCC3C2)cc1 (stereo not shown) [Gliclazide, reference compound] |  |  | IC50 (NLRP3 inflammasome [1]; [9]): > 200 µM; IC50 (NLRP3 inflammasome [2]; [10]): > 200 µM
22 | CC(=O)c1ccc(S(=O)(=O)NC(=O)NC2CCCCC2)cc1 [Acetohexamide, reference compound] |  |  | IC50 (NLRP3 inflammasome [1]; [9]): > 200 µM; IC50 (NLRP3 inflammasome [2]; [10]): > 200 µM
23 | O=C(Nc1c2c(cc3c1CCC3)CCC2)NS(=O)(=O)c1ccc(Cl)cc1 [drawing 366] |  |  | IC50 (NLRP3 inflammasome [1]; [5]): 0.03 µM; IC50 (NLRP3 inflammasome [2]; [6]): 0.3 µM
24 | COc1ccc2c(c1)C(=O)N(CCc1ccc(S(N)(=O)=O)cc1)C(=O)C2(C)C [4-(2-(7-methoxy-4,4-dimethyl-1,3-dioxo-3,4-dihydroisoquinolin-2(1H)-yl)ethyl)benzenesulfonamide, reference compound] |  |  | IC50 (NLRP3 inflammasome [1]; [7]): > 10 µM; IC50 (NLRP3 inflammasome [2]; [8]): > 200 µM
25 | CCCNC(=O)NS(=O)(=O)c1ccc(Cl)cc1 [Chlorpropamide, reference compound] |  |  | IC50 (NLRP3 inflammasome [1]; [9]): > 200 µM; IC50 (NLRP3 inflammasome [2]; [10]): > 200 µM
26 | CC(C)c1cc(Cl)cc(C(C)C)c1NC(=O)NS(=O)(=O)c1cc2ccccc2s1 [N-((4-chloro-2,6-diisopropylphenyl)carbamoyl)benzo[b]thiophene-2-sulfonamide] | < 1 µM | < 0.1 µM | 
27 | O=C(Nc1c2c(cc3c1CCC3)CCC2)NS(=O)(=O)c1cccc(OC(F)(F)F)c1 [N-((1,2,3,5,6,7-hexahydro-s-indacen-4-yl)carbamoyl)-3-(trifluoromethoxy)benzenesulfonamide] | < 1 µM | < 1 µM | 
28 | O=C(Nc1ccc(Cl)cc1)NS(=O)(=O)c1ccc2c(c1)CCC2 [Sulofenur, reference compound] |  |  | IC50 (NLRP3 inflammasome [1]; [9]): > 10 µM; IC50 (NLRP3 inflammasome [2]; [10]): > 100 µM
29 | Cc1cnc(C(=O)NCCc2ccc(S(=O)(=O)NC(=O)NC3CCCCC3)cc2)cn1 [Glipizide, reference compound] |  |  | IC50 (NLRP3 inflammasome [1]; [9]): > 200 µM; IC50 (NLRP3 inflammasome [2]; [10]): > 200 µM
30 | CCOC(=O)c1coc(S(=O)(=O)NC(=O)Nc2c3c(cc4c2CCC4)CCC3)c1 [ethyl 5-(N-((1,2,3,5,6,7-hexahydro-s-indacen-4-yl)carbamoyl)sulfamoyl)furan-3-carboxylate] | < 1 µM |  | 
31 | CC(C)(O)c1coc(S(=O)(=O)NC(=O)Nc2c3ccoc3cc3ccoc23)c1 [N-(benzo[1,2-b:4,5-b′]difuran-4-ylcarbamoyl)-4-(2-hydroxypropan-2-yl)furan-2-sulfonamide] | < 0.1 µM |  | 
32 | Cc1cnc(C(=O)NCCc2ccc(S(=O)(=O)NC(=O)Nc3c4c(cc5c3CCC5)CCC4)cc2)cn1 [drawing 359] |  |  | IC50 (NLRP3 inflammasome [1]; [5]): 0.32 µM
33 | O=C(Nc1c2c(cc3c1CCC3)CCC2)NS(=O)(=O)c1nnc[nH]1 [N-((1,2,3,5,6,7-hexahydro-s-indacen-4-yl)carbamoyl)-4H-1,2,4-triazole-3-sulfonamide] | < 0.1 µM |  | 
34 | CC(C)(O)c1coc(S(=O)(=O)NC(=O)Nc2c3c(cc4c2CCO4)CCC3)c1 [4-(2-hydroxypropan-2-yl)-N-((3,5,6,7-tetrahydro-2H-indeno[5,6-b]furan-4-yl)carbamoyl)furan-2-sulfonamide] | < 0.1 µM |  | 
35 | COc1ccc(OC)c(NC(=O)NS(=O)(=O)c2cc(C(C)(C)O)co2)c1 [N-((2,5-dimethoxyphenyl)carbamoyl)-4-(2-hydroxypropan-2-yl)furan-2-sulfonamide] | < 10 µM |  | 
